Like-named read-outs stand apart in the source and are kept apart here.
Target: PDE9 (Homo sapiens, UniProt O76083)
Assay: PDE9 inhibition assay
Format: biochemical
Procedure: Reactions are initiated by addition of the cyclic nucleotide substrate, and reactions are allowed to proceed for one hr at room temperature before being terminated through mixing with 15 uL 8 mg/mL yttrium silicate SPA beads (Amersham). […] IC50 values were calculated by non linear regression using XLfit (IDBS).

[1] = SPA assay, 10 nM 3H-cAMP, 1 hour incubation, read-out: IC50

PDE9, sequence (O76083 whole entry): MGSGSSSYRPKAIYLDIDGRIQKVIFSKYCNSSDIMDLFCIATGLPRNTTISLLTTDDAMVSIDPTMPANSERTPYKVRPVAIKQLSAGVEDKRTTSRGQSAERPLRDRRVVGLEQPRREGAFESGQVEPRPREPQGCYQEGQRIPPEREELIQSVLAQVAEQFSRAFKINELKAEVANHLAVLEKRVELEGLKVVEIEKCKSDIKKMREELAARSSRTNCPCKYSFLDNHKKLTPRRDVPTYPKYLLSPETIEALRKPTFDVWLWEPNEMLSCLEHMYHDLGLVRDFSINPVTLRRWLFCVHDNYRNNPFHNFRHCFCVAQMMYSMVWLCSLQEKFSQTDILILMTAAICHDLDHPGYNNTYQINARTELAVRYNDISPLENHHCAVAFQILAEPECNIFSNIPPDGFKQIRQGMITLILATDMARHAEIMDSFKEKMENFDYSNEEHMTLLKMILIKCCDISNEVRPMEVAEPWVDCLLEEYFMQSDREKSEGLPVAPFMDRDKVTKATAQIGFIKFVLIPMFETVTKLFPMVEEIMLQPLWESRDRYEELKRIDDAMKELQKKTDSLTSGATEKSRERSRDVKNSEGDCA

IC50 [nM] | IC50 [1] [nM] | SMILES
30 | – | COc1ccc(C2CN(Cc3cn4c(C5CCOCC5)ncc4c(=O)[nH]3)C2)cc1 [Compound 69, 6-[[3-(4-methoxyphenyl)azetidin-1-yl]methyl]-3-tetrahydropyran-4-yl-7h-imidazo[1,5-a]pyrazin-8-one]
– | 36 | CC1CN(Cc2ccc(F)cc2)CC1c1cn2c(-c3ccc(Cl)cc3)ncc2c(=O)[nH]1 (stereo not shown) [Compound 110, 3-(4-chlorophenyl)-6-[1-[(4-fluorophenyl)methyl]-4-methyl-pyrrolidin-3-yl]-7h-imidazo[1,5-a]pyrazin-8-one]
57 | – | COc1ccc(C2CN(Cc3cn4c(-c5ccc(F)cc5)ncc4c(=O)[nH]3)C2)cc1 [Compound 123, 3-(4-fluorophenyl)-6-[[3-(4-methoxyphenyl)azetidin-1-yl]methyl]-7h-imidazo[1,5-a]pyrazin-8-one]
54 | – | CC(c1cn2c(-c3ccccc3)ncc2c(=O)[nH]1)N1CC(c2ccccc2)C1 (stereo not shown) [Compound 18, 3-phenyl-6-[1-(3-phenylazetidin-1-yl)ethyl]-7h-imidazo[1,5-a]pyrazin-8-one]
– | 13 | O=c1[nH]c(CN2CC(Oc3ccc(OC(F)(F)F)cc3)C2)cn2c(C3CCOCC3)ncc12 [Compound 64, 3-tetrahydropyran-4-yl-6-[[3-[4-(trifluoromethoxy)phenoxy]azetidin-1-yl]methyl]-7h-imidazo[1,5-a]pyrazin-8-one]
– | 156 | CN(Cc1ccccc1)Cc1cn2c(-c3ccccc3)ncc2c(=O)[nH]1 [Compound 9, 6-[[benzyl(methyl)amino]methyl]-3-phenyl-7h-imidazo[1,5-a]pyrazin-8-one]
79 | – | O=c1[nH]c(CN2CC(c3ccccn3)C2)cn2c(-c3ccc(F)cc3)ncc12 [Compound 61, 3-(4-fluorophenyl)-6-[[3-(2-pyridyl)azetidin-1-yl]methyl]-7h-imidazo[1,5-a]pyrazin-8-one]
– | 73 | COC1CN(C(C)c2cn3c(-c4ccc(F)cc4)ncc3c(=O)[nH]2)C1 (stereo not shown) [Compound 1, 3-(4-fluorophenyl)-6-[1-(3-methoxyazetidin-1-yl)ethyl]-7h-imidazo[1,5-a]pyrazin-8-one]
3 | – | CC(c1cn2c(C3CCCC3)ncc2c(=O)[nH]1)N1CC(Oc2ccc(F)cc2)C1 (stereo not shown) [Compound 47, 3-cyclopentyl-6-[1-[3-(4-fluorophenoxy)azetidin-1-yl]ethyl]-7h-imidazo[1,5-a]pyrazin-8-one]
37 | – | COC1CN(C(c2ccccc2)c2cn3c(-c4ccccc4)ncc3c(=O)[nH]2)C1 (stereo not shown) [Compound 22, 6-[(3-methoxyazetidin-1-yl)-phenyl-methyl]-3-phenyl-7h-imidazo[1,5-a]pyrazin-8-one]
– | 102 | O=c1[nH]c(CN2CC(c3ncccn3)C2)cn2c(C3CCOCC3)ncc12 [Compound 54, 6-[(3-pyrimidin-2-ylazetidin-1-yl)methyl]-3-tetrahydropyran-4-yl-7h-imidazo[1,5-a]pyrazin-8-one]
– | 19 | CC(c1cn2c(-c3ccccc3)ncc2c(=O)[nH]1)N1CC(Oc2ccc(F)cc2)C1 (stereo not shown) [Compound 26, 6-[1-[3-(4-fluorophenoxy)azetidin-1-yl]ethyl]-3-phenyl-7h-imidazo[1,5-a]pyrazin-8-one]
– | 29 | O=c1[nH]c(CN2CC(c3ccccn3)C2)cn2c(-c3ccccc3)ncc12 [Compound 37, 3-phenyl-6-[[3-(2-pyridyl)azetidin-1-yl]methyl]-7h-imidazo[1,5-a]pyrazin-8-one]
97 | – | O=c1[nH]c(CN2CC(Oc3cccc(C(F)(F)F)c3)C2)cn2c(-c3ccc(F)cc3)ncc12 [Compound 95, 3-(4-fluorophenyl)-6-[[3-[3-(trifluoromethyl)phenoxy]azetidin-1-yl]methyl]-7h-imidazo[1,5-a]pyrazin-8-one]
– | 23 | CC1CN(Cc2ccc(C(F)(F)F)nc2)CC1c1cn2c(C3CCOCC3)ncc2c(=O)[nH]1 (stereo not shown) [Compound 79, 6-[4-methyl-1-[[6-(trifluoromethyl)-3-pyridyl]methyl]pyrrolidin-3-yl]-3-tetrahydropyran-4-yl-7h-imidazo[1,5-a]pyrazin-8-one]
– | 233 | O=c1[nH]c(CN2CCC(Oc3ncccn3)C2)cn2c(-c3ccc(F)cc3)ncc12 (stereo not shown) [Compound 86, 3-(4-fluorophenyl)-6-[(3-pyrimidin-2-yloxypyrrolidin-1-yl)methyl]-7h-imidazo[1,5-a]pyrazin-8-one]
78 | – | O=c1[nH]c(CN2CC(c3ccccn3)C2)cn2c(C3CCOCC3)ncc12 [Compound 62, 6-[[3-(2-pyridyl)azetidin-1-yl]methyl]-3-tetrahydropyran-4-yl-7h-imidazo[1,5-a]pyrazin-8-one]
– | 43 | COC(=O)C1CN(Cc2ccccc2)CC1c1cn2c(-c3ccccc3)ncc2c(=O)[nH]1 (stereo not shown) [Compound 10, methyl 1-benzyl-4-(8-oxo-3-phenyl-7h-imidazo[1,5-a]pyrazin-6-yl)pyrrolidine-3-carboxylate]

IC50 [nM] | IC50 [1] [nM] | SMILES
– | 49 | N#Cc1ccc(C2CN(Cc3cn4c(-c5ccccc5)ncc4c(=O)[nH]3)C2)cc1 [Compound 35, 4-[1-[(8-oxo-3-phenyl-7h-imidazo[1,5-a]pyrazin-6-yl)methyl]azetidin-3-yl]benzonitrile]
– | 9 | Cc1ccc(COC2CN(Cc3cn4c(-c5ccc(F)cc5)ncc4c(=O)[nH]3)C2)cc1 [Compound 113, 3-(4-fluorophenyl)-6-[[3-(p-tolylmethoxy)azetidin-1-yl]methyl]-7h-imidazo[1,5-a]pyrazin-8-one]
18 | – | O=c1[nH]c(CN2CC(Oc3ccccc3F)C2)cn2c(-c3ccccc3)ncc12 [Compound 33, 6-[[3-(2-fluorophenoxy)azetidin-1-yl]methyl]-3-phenyl-7h-imidazo[1,5-a]pyrazin-8-one]
– | 19 | CC1CN(Cc2ncccn2)CC1c1cn2c(C3CCOCC3)ncc2c(=O)[nH]1 (stereo not shown) [Compound 90, 6-[4-methyl-1-(pyrimidin-2-ylmethyl)pyrrolidin-3-yl]-3-tetrahydropyran-4-yl-7h-imidazo[1,5-a]pyrazin-8-one]
– | 164 | O=c1[nH]c(CN2CC(Oc3cccc(F)n3)C2)cn2c(-c3ccc(F)cc3)ncc12 [Compound 60, 3-(4-fluorophenyl)-6-[[3-[(6-fluoro-2-pyridyl)oxy]azetidin-1-yl]methyl]-7h-imidazo[1,5-a]pyrazin-8-one]
10 | – | O=c1[nH]c(CN2CC(c3ccc(C(F)(F)F)cn3)C2)cn2c(C3CCOCC3)ncc12 [Compound 70, 3-tetrahydropyran-4-yl-6-[[3-[5-(trifluoromethyl)-2-pyridyl]azetidin-1-yl]methyl]-7h-imidazo[1,5-a]pyrazin-8-one]
– | 13 | O=c1[nH]c(CN2CC(Oc3ccc(F)cc3)C2)cn2c(-c3ccc(F)cc3)ncc12 [Compound 63, 6-[[3-(4-fluorophenoxy)azetidin-1-yl]methyl]-3-(4-fluorophenyl)-7h-imidazo[1,5-a]pyrazin-8-one]
– | 1 | O=c1[nH]c(CN2CC(OCc3ccccc3)C2)cn2c(-c3ccc(F)cc3)ncc12 [Compound 45, 6-[(3-benzyloxyazetidin-1-yl)methyl]-3-(4-fluorophenyl)-7h-imidazo[1,5-a]pyrazin-8-one]
– | 42 | O=c1[nH]c(CN2CC(Oc3ccc(Cl)cc3)C2)cn2c(-c3ccc(F)cc3)ncc12 [Compound 118, 6-[[3-(4-chlorophenoxy)azetidin-1-yl]methyl]-3-(4-fluorophenyl)-7h-imidazo[1,5-a]pyrazin-8-one]
– | 4 | CC1CN(Cc2ccc(F)cc2)CC1c1cn2c(-c3ccc(F)cc3)nc(Br)c2c(=O)[nH]1 (stereo not shown) [Compound 100, 1-bromo-3-(4-fluorophenyl)-6-[1-[(4-fluorophenyl)methyl]-4-methyl-pyrrolidin-3-yl]-7h-imidazo[1,5-a]pyrazin-8-one]
– | 46 | CC(c1cn2c(C3CCOCC3)ncc2c(=O)[nH]1)N1CC(c2ncccn2)C1 (stereo not shown) [Compound 91, 6-[1-(3-pyrimidin-2-ylazetidin-1-yl)ethyl]-3-tetrahydropyran-4-yl-7h-imidazo[1,5-a]pyrazin-8-one]
– | 28 | O=c1[nH]c(CN2CC(Oc3ccc(C(F)(F)F)cc3)C2)cn2c(-c3ccc(F)cc3)ncc12 [Compound 109, 3-(4-fluorophenyl)-6-[[3-[4-(trifluoromethyl)phenoxy]azetidin-1-yl]methyl]-7h-imidazo[1,5-a]pyrazin-8-one]
– | 35 | CC(c1cn2c(-c3ccc(F)cc3)ncc2c(=O)[nH]1)N1CC(Oc2ccc(OC(F)(F)F)cc2)C1 (stereo not shown) [Compound 120, 3-(4-fluorophenyl)-6-[1-[3-[4-(trifluoromethoxy)phenoxy]azetidin-1-yl]ethyl]-7h-imidazo[1,5-a]pyrazin-8-one]
– | 33 | O=c1[nH]c(CN2CC(c3ccc(F)cc3)C2)cn2c(-c3ccc(F)cc3)ncc12 [Compound 76, 3-(4-fluorophenyl)-6-[[3-(4-fluorophenyl)azetidin-1-yl]methyl]-7h-imidazo[1,5-a]pyrazin-8-one]
– | 32 | N#Cc1ccc(C2CN(Cc3cn4c(C5CCOCC5)ncc4c(=O)[nH]3)C2)cc1 [Compound 106, 4-[1-[(8-oxo-3-tetrahydropyran-4-yl-7h-imidazo[1,5-a]pyrazin-6-yl)methyl]azetidin-3-yl]benzonitrile]
– | 79 | CC(c1cn2c(-c3ccccc3)ncc2c(=O)[nH]1)N1CC(c2ncccn2)C1 (stereo not shown) [Compound 36, 3-phenyl-6-[1-(3-pyrimidin-2-ylazetidin-1-yl)ethyl]-7h-imidazo[1,5-a]pyrazin-8-one]
17 | – | CC(C)OC1CN(Cc2cn3c(C4CCCC4)ncc3c(=O)[nH]2)C1 [Compound 57, 3-cyclopentyl-6-[(3-isopropoxyazetidin-1-yl)methyl]-7h-imidazo[1,5-a]pyrazin-8-one]
– | 38 | CC(c1cn2c(-c3ccccc3)ncc2c(=O)[nH]1)N1CC(Oc2cccc(F)n2)C1 (stereo not shown) [Compound 27, 6-[1-[3-[(6-fluoro-2-pyridyl)oxy]azetidin-1-yl]ethyl]-3-phenyl-7h-imidazo[1,5-a]pyrazin-8-one]

SMILES | IC50 [nM] | IC50 [1] [nM]
CC(C)COC1CN(Cc2cn3c(C4CCCC4)ncc3c(=O)[nH]2)C1 [Compound 58, 3-cyclopentyl-6-[(3-isobutoxyazetidin-1-yl)methyl]-7h-imidazo[1,5-a]pyrazin-8-one] | 4 | –

Source: US9643970B2, “Substituted imidazo [1,5-a]pyrazines as PDE9 inhibitors” (H Lundbeck A/S, priority 2012, dated 2017)
